From the AptaBench aptamer set (doi:10.1093/nar/gkaf219)

Assays:
Conditions in all cases: 10 mM Tris-HCl, pH 7.4
[1] = tested on: DNA aptamer or structured DNA CTTACGACAAGGGATGTTTGTTAGTGTGTCGGTGCATTGTCGTAAG
[2] = tested on: DNA aptamer or structured DNA CTTACGACAATGGGGCAGTTCTAGTTGGGGTTTATATTGTCGTAAG
[3] = tested on: DNA aptamer or structured DNA CTTACGACCGGCGGAAGGCTGGAGGGGTTGGGGGAGGTGTCGTAAG
[4] = tested on: DNA aptamer or structured DNA CTTACGACGAGCATCGGTTTTTTCGGTGATGTCTGGGAGTCGTAAG
[5] = tested on: DNA aptamer or structured DNA CTTACGACTAGGTGTGGGTCGGCGCTAGGGGCAGGGTAGTCGTAAG
[6] = tested on: DNA aptamer or structured DNA CTTACGACTCAGGGGGAGGCTAGGGTGCGCGGAAGCTGGTCGTAAG
[7] = tested on: DNA aptamer or structured DNA GGGACGACCCGTAGGGGTACACGCTCTATGGGGGCTGGGTCGTCCC
[8] = tested on: DNA aptamer or structured DNA GGGACGACGGCTTAGCAAAGCTAGTAGGGGTCCACGCTGTCGTCCC
[9] = tested on: DNA aptamer or structured DNA GGGACGACTAGCCCTAGCGTTGTTCGAGTCCATGAGTAGTCGTCCC
[10] = tested on: DNA aptamer or structured DNA CTTACGACAGTAACGGTGGGTATATGGGATTTATGTTCGTCGTAAG
[11] = tested on: DNA aptamer or structured DNA CTTACGACATGGGATGTAAGTTAGTGGGTCGGATCCGGGTCGTAAG
[12] = tested on: DNA aptamer or structured DNA CTTACGACCTAAGGGTCTGGAGTGGTTGTTATACGCTGGTCGTAAG
[13] = tested on: DNA aptamer or structured DNA CTTACGACTAGTTCTGAGGAATCAACGTCGGTGTAGTTGTCGTAAG
[14] = tested on: DNA aptamer or structured DNA GGGACGACAGAATGGCAGCATTGGTGAGTTGTTTGCCTGTCGTCCC
[15] = tested on: DNA aptamer or structured DNA GGGACGACAGCTTGGTTTGGTCGGGGTAGGGTTCGGATGTCGTCCC
[16] = tested on: DNA aptamer or structured DNA GGGACGACAGGGATTCGGTCTTGGAACAAAGGGGCCTCGTCTGTCGTCCC
[17] = tested on: DNA aptamer or structured DNA GGGACGACAGGGATTCGGTCTTGGTACATAGGGGCCTCGTCTGTCGTCCC
[18] = tested on: DNA aptamer or structured DNA GGGACGACAGGGCACGTCTCGGCATCGAGGGTTTCGCGGTCGTCCC
[19] = tested on: DNA aptamer or structured DNA GGGACGACCGGACTTGGGTGGGTGCTGGGGCTTGGGCGGTCGTCCC
[20] = tested on: DNA aptamer or structured DNA GGGACGACGAGGGGATCCATCCAATGGGGTTTGTATACGTCGTCCC
[21] = tested on: DNA aptamer or structured DNA GGGACGACGGCTTGCATTGAGCAGAAGGGGTACACGCTGTCGTCCC
[22] = tested on: DNA aptamer or structured DNA GGGACGACGGGAAGGTTGGCAGCGCATCGTCGGGTCACGTCGTCCC
[23] = tested on: DNA aptamer or structured DNA GGGACGACGGGGATTCGGTTCGTCATTTGGCAGTGCCTCGTCTGTCGTCCC
[24] = tested on: DNA aptamer or structured DNA GGGACGACGGTTGGCTTGGGGTCGGGTGTGGGTGCGGCGTCGTCCC
[25] = tested on: DNA aptamer or structured DNA GGGACGACGGTTGGCTTGGGTCGGGTGTGGGTGCGGCGTCGTCCC
[26] = tested on: DNA aptamer or structured DNA GGGACGACTACAGGTCGTGCGTCGCTCGAGTTGGTGAGTGTGTCGTCCC
[27] = tested on: DNA aptamer or structured DNA GGGACGACTAGTGCCTTCGCGTTGTACGGGAATCCGGTTCTGTCGTCCC
[28] = tested on: DNA aptamer or structured DNA GGGACGACTAGTGCCTTCGCGTTGTTCGGGAATCCGGTTCTGTCGTCCC
[29] = tested on: DNA aptamer or structured DNA GGGACGACTAGTGCCTTCGTGTTGTTCAGGAATCCGGTTCTGTCGTCCC
[30] = tested on: DNA aptamer or structured DNA TTCAAATCTCGCGCAGGTAGGGGTGTAGGTGTGGGGGTAAGTCTAGATTTGAA
[31] = tested on: DNA aptamer or structured DNA CTTACGACTAGGTGGGGGTCGGCGCCGTAGGTGGGGTAGTCGTAAG
[32] = tested on: DNA aptamer or structured DNA GGGACGACAAGTACCAAGGGTAGCTCTGCGTTGTTCGAGGTCGTCCC
[33] = tested on: DNA aptamer or structured DNA GGGACGACGGCACGGGGTTATTCGTTGGTTGCACTGCGCTGGGAGGCAGTCGTCCC
[34] = tested on: DNA aptamer or structured DNA GGGACGACGCGTAGGTTCCCTAGCTGTGCGTCGTTCAAGTCGTCCC
[35] = tested on: DNA aptamer or structured DNA GGGACGACTAGCCGCGCGTTGTCCGACCCTTGGAAGTAGTCGTCCC
For binding call in this document: call rule not given here.

Structure (SMILES) | binding call [2] | binding call [3] | binding call [4] | binding call [6] | binding call [7] | binding call [8] | binding call [9] | binding call [11] | binding call [12] | binding call [13] | binding call [14] | binding call [15] | binding call [17] | binding call [18] | binding call [20] | binding call [21] | binding call [23] | binding call [24] | binding call [25] | binding call [30] | also measured
OC[C@@H](O)[C@@H](O)[C@H](O)[C@H](O)CO | no binding | no binding | binds | no binding | no binding | no binding | no binding | – | – | – | – | – | – | – | – | – | – | – | – | – | binding call [1]: no binding; binding call [5]: no binding
CCN(CC)CCOC(=O)c1ccc(N)cc1 | binds | binds | binds | binds | – | – | no binding | no binding | no binding | no binding | no binding | binds | no binding | no binding | binds | no binding | no binding | binds | no binding | no binding | binding call [1]: no binding; binding call [10]: no binding; binding call [16]: no binding; binding call [19]: no binding; binding call [22]: no binding; binding call [26]: no binding; binding call [27]: no binding; binding call [28]: binds; binding call [29]: no binding
C=C[C@H]1CN2CC[C@@H]1C[C@H]2[C@H](O)c1ccnc2ccc(OC)cc12 | – | no binding | no binding | binds | – | – | – | no binding | – | no binding | – | no binding | no binding | no binding | binds | binds | no binding | binds | – | no binding | binding call [31]: no binding; binding call [32]: no binding; binding call [16]: no binding; binding call [33]: binds; binding call [22]: no binding; binding call [28]: no binding; binding call [29]: no binding
C=CCN1CC[C@]23c4c5ccc(O)c4O[C@H]2C(=O)CC[C@@]3(O)[C@H]1C5 | – | – | – | – | binds | binds | no binding | – | – | – | no binding | – | no binding | no binding | – | binds | no binding | no binding | no binding | – | binding call [32]: no binding; binding call [19]: no binding; binding call [34]: no binding; binding call [26]: no binding
c1ccc([C@H]2CN3CCSC3=N2)cc1 | binds | – | – | no binding | no binding | no binding | no binding | no binding | no binding | no binding | – | – | – | no binding | – | no binding | – | – | – | – | binding call [10]: no binding; binding call [5]: no binding; binding call [32]: no binding; binding call [34]: binds; binding call [35]: no binding
COC(=O)[C@@H]1C2CCC(C[C@@H]1OC(=O)c1ccccc1)N2C (stereo partly drawn) | – | binds | no binding | – | – | – | no binding | – | – | – | – | binds | – | no binding | binds | no binding | – | binds | no binding | no binding | Kd [1]: 357 nM; Kd [2]: 345 nM; Kd [10]: 282 nM; Kd [12]: 218 nM; Kd [31]: 467 nM; Kd [5]: 315 nM; Kd [13]: 33 nM; Kd [6]: 245 nM
CC(=O)Oc1ccc2c3c1O[C@H]1[C@@H](OC(C)=O)C=C[C@H]4[C@@H](C2)N(C)CC[C@@]341 | – | no binding | no binding | no binding | – | – | – | no binding | no binding | – | no binding | – | – | – | – | – | – | – | no binding | no binding | binding call [31]: no binding; Kd [32]: 2180 nM; Kd [18]: 4740 nM; Kd [34]: 3400 nM; Kd [22]: 2400 nM; Kd [9]: 3310 nM; Kd [35]: 3110 nM
